Values of other authors, collected in publication PMC3889329 (Diabetes Therapy, 2013).

System: healthy subjects
Settings: cited from earlier work

## Cc1ccc([C@@H]2O[C@H](CO)[C@@H](O)[C@H](O)[C@H]2O)cc1Cc1ccc(-c2ccc(F)cc2)s1 [Canagliflozin]
200–800 mg qd, healthy subjects
  Maximal UGE: 70 g/day

## OC[C@H]1O[C@@H](c2ccc(F)c(Cc3cc4ccccc4s3)c2)[C@H](O)[C@@H](O)[C@@H]1O [Ipragliflozin]
Multiple doses of 5–600 mg, healthy volunteers
  Maximum UGE: approximately 59 g/day
